The source of these data is patent US20050049207A1 (priority 2003, published 2005).

Data set [1] relates to prostate, lung and colorectal cancer. Conditions: selenium supplements, humans; cited from earlier work.
Another data set has as its system Saccharomyces cerevisiae. The settings on record: Saccharomyces cerevisiae (brewer's/baker's yeast); cited from earlier work.
In the next data set the test system is Candida albicans. Conditions: cited from earlier work.
Another data set relates to leukemia. Conditions: human, in vivo; cited from earlier work.
A further data set has as its system PSA levels. Conditions: men with prostate cancer; cited from earlier work.
For a further data set, the system named is prostate cancer. The experiment in a line: Case 4: person with prostate cancer on Phase I diet and antifungals. Type of data set: in vivo, man. Conditions: one patient; Phase I diet 2 months, nystatin 2 months, then UGN, Caprylic acid, GSE; PSA closer to 4.0 at cancer diagnosis. From the text:
4. A person was diagnosed as having prostrate cancer. UTSW study for BPH ×5-6 yrs. Biopsy prior and post program. Normal PSA! At post-study diagnosis, cancer was found: October 2001. They moved to OKC and started watching Doug's show.
Past history includes heavy use of antibiotics, recurrently for allergies, sinusitis.
Went to MD Anderson—found cancer in different place of the prostate, but Cancer was confirmed nonetheless. Gleason stage 7.
Started on Phase I for 2 months (had severe die-off ×4 days—including fever), nystatin thereafter ×2 months. Cont'd diet for 4 months and stays on a variant of the diet. On UGN, Caprylic acid, GSE now ×3 months. Saw John Hogan, D.O. (OKC). Past 2 yrs: PSA now is 1.1. Was closer to 4.0 at the time of cancer diagnosis.
F/U Ultrasound: cannot find any tumors. Whole body scans have been negative.

Data set [2] relates to primary human urothelial cells. The settings on record: cited from earlier work.
For data set [3] the following is noted: in vivo; cited from earlier work.
In data set [4] the test system is p53 tumor suppressor gene. The settings on record: cited from earlier work.

As to `[Se]` [Selenium], in data set [1], the “lower risk of developing cancer” value was 37% and the “lower risk of dying from the cancer” value is reported as 50%. As for `CC/C(=C(\c1ccccc1)c1ccc(OCCN(C)C)cc1)c1ccccc1` [Tamoxifen], the antifungal action entry in the data set with Saccharomyces cerevisiae and with Candida albicans was “marked antifungal action” in each case. `C[C@@H]1[C@H](O)[C@@H](C)/C=C/C=C/C=C/C=C/C=C/C=C/C=C/[C@H](O[C@@H]2O[C@H](C)[C@@H](O)[C@H](N)[C@@H]2O)C[C@@H]2O[C@](O)(C[C@@H](O)C[C@@H](O)[C@H](O)CC[C@@H](O)C[C@@H](O)CC(=O)O[C@H]1C)C[C@H](O)[C@H]2C(=O)O` [amphotericin B]: in the data set on leukemia, the “effect on (secondary) fungal infections” value was “cured their (secondary) fungal infections” and the “effect on cancer (leukemia)” value was “successfully treated their cancer”. With `OC(Cn1cncn1)(Cn1cncn1)c1ccc(F)cc1F` [fluconazole], in the data set with leukemia, the “effect on (secondary) fungal infections” value is recorded as “cured their (secondary) fungal infections” and the “effect on cancer (leukemia)” value is “successfully treated their cancer”. In the case of `CC(=O)N1CCN(c2ccc(OCC3COC(Cn4ccnc4)(c4ccc(Cl)cc4Cl)O3)cc2)CC1` (stereo not shown) [ketoconazole], the “effect on PSA levels” value in the data set on PSA levels is “lowered PSA levels”. Turning to `C[C@@H]1[C@H](O)[C@@H](C)/C=C/C=C/CC/C=C/C=C/C=C/C=C/C(O[C@H]2O[C@H](C)[C@@H](O)[C@H](N)[C@@H]2O)CC2O[C@](O)(CC(O)C(O)CCC(O)CC(O)CC(O)CC(=O)O[C@H]1C)CC(O)C2C(=O)O` (stereo partly shown) [nystatin], the PSA in the data set with prostate cancer amounted to 1.1.

Regarding `C[C@@H]1Cc2c(Cl)cc(C(=O)N[C@@H](Cc3ccccc3)C(=O)O)c(O)c2C(=O)O1` [ochratoxin A], in [2], the “unscheduled DNA synthesis” value was “Induction of unscheduled DNA synthesis”. On to aflatoxin B1, for which, in data set [3], the “liver carcinoma after exposure” value is “develop liver carcinoma”. For the same molecule, the “mutation of p53 tumor suppressor gene” value in [4] is on record as “induces the transversion of G→T in codon 249”.
